One assay concerns the target T1, human Nav1.7 channels (Homo sapiens, UniProt Q15858).
T1 construct: expressed in transfected cells; host or cells: CHO
Put plainly: FRET assay, human Nav1.7 (EFS on FDSS). It is filed as cell-based. As to conditions: CHO cells expressing human Nav1.7, read-out: IC50 against Nav1.7. In short, it runs like this: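 CHO cells stably expressing the channel, loaded with CC2-DMPE (10 µM) then DiSBAC2(3) (15 µM) plus VABSC-1, in HEPES-buffered saline pH 7.4 at room temperature. Electrical field stimulation on FDSS; FRET ratio at 440 nm fitted for IC50.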

For assay [1], the system named is CCI-induced static allodynia in rats. Put plainly: Chronic Constriction Injury (CCI)-induced static allodynia in rats. It is filed as in vivo, Sprague-Dawley rats. The following applies: 100 mg/kg per os. Here is the method: Chronic Constriction Injury (CCU-Induced Static Allodynia in Rats
Male Sprague-Dawley rats at 7 weeks old are purchased from Charles River Japan Inc., and housed in groups of two per cage under a 12-h light/dark cycle (lights on at 07:00) with access to food and water ad libitum. CCI-induced static allodynia is assessed by von Frey hair (VFH) test. Surgery is performed according to the method of Bennett G J and Xie Y K (Pain 1988, 33: 87-107). The animals are anesthetized with intraperitoneal injection of pentobarbital sodium. The left common sciatic nerve is exposed at the level of the middle of the thigh, freed of adhering tissue, and four ligatures are loosely tided around it by using 4-0 silk thread. The incision is sutured, and the rats are allowed to recover in their cages with soft bedding. Sham operation is performed in the same manner except of sciatic nerve ligation. The animals are individually placed in a Plexiglas test chamber on an elevated grid to acclimate for 1 hour before the day of testing. […]
In the cases where continuous positive or negative responses are observed all the way out to the end of the stimulus spectrum, values of 0.25 and 15 g are assigned, respectively. […] The 50% PWT is measured at the appropriated time after compound administration.

Assay [2] relates to CFA-induced weight bearing deficit in rats. Put plainly: CFA-induced weight bearing deficit in rats. In kind it is in vivo, Sprague-Dawley rats. The following applies: 10 mg/kg per os. On the procedure: CFA-Induced Weight Bearing Deficit in Rats
Male Sprague-Dawley rats at 7 weeks old are purchased from Charles River Japan Inc., and housed in groups of two per cage under a 12-h light/dark cycle (lights on at 07:00) with access to food and water ad libitum. CFA-induced weight bearing (WB) deficit is assessed using Incapacitance tester (Linton Instrumentation). The animals are habituated to a plastic case that comes with Incapacitance tester before the day of CFA injection. On the day of CFA injection, the weight distribution of each hind paw is measured 3 times per rat using the tester, and the difference of weight distribution, weight on the right (injected) paw minus weight on left (non-injected) paw, is defined as WB deficit value in g. The duration of the each measurement is adjusted to 3 seconds. CFA is prepared at a concentration of 2-3 mg/mL of Mycobacterium tuberculosis H37 RA in liquid paraffin. After disinfections with 70% ethanol, the rats are injected intraplantarly with 100 microL of CFA (200-300 microgram) into the right hind paw. Two days after CFA injection, the weight distribution of each hind paw is measured and the WB deficit value is calculated in the same manner as mentioned above. […] The weight distribution of each hind paw is measured at the appropriated time after compound administration, and the WB deficit value is calculated as previously explained.

Molecules are shown by their SMILES. Several values for one entry are separate records, joined by “and”; a condition that tells them apart may be missing. Identical values can stand only once. Bounds are passed on as bounds.

T1 sequence (Q15858 whole entry): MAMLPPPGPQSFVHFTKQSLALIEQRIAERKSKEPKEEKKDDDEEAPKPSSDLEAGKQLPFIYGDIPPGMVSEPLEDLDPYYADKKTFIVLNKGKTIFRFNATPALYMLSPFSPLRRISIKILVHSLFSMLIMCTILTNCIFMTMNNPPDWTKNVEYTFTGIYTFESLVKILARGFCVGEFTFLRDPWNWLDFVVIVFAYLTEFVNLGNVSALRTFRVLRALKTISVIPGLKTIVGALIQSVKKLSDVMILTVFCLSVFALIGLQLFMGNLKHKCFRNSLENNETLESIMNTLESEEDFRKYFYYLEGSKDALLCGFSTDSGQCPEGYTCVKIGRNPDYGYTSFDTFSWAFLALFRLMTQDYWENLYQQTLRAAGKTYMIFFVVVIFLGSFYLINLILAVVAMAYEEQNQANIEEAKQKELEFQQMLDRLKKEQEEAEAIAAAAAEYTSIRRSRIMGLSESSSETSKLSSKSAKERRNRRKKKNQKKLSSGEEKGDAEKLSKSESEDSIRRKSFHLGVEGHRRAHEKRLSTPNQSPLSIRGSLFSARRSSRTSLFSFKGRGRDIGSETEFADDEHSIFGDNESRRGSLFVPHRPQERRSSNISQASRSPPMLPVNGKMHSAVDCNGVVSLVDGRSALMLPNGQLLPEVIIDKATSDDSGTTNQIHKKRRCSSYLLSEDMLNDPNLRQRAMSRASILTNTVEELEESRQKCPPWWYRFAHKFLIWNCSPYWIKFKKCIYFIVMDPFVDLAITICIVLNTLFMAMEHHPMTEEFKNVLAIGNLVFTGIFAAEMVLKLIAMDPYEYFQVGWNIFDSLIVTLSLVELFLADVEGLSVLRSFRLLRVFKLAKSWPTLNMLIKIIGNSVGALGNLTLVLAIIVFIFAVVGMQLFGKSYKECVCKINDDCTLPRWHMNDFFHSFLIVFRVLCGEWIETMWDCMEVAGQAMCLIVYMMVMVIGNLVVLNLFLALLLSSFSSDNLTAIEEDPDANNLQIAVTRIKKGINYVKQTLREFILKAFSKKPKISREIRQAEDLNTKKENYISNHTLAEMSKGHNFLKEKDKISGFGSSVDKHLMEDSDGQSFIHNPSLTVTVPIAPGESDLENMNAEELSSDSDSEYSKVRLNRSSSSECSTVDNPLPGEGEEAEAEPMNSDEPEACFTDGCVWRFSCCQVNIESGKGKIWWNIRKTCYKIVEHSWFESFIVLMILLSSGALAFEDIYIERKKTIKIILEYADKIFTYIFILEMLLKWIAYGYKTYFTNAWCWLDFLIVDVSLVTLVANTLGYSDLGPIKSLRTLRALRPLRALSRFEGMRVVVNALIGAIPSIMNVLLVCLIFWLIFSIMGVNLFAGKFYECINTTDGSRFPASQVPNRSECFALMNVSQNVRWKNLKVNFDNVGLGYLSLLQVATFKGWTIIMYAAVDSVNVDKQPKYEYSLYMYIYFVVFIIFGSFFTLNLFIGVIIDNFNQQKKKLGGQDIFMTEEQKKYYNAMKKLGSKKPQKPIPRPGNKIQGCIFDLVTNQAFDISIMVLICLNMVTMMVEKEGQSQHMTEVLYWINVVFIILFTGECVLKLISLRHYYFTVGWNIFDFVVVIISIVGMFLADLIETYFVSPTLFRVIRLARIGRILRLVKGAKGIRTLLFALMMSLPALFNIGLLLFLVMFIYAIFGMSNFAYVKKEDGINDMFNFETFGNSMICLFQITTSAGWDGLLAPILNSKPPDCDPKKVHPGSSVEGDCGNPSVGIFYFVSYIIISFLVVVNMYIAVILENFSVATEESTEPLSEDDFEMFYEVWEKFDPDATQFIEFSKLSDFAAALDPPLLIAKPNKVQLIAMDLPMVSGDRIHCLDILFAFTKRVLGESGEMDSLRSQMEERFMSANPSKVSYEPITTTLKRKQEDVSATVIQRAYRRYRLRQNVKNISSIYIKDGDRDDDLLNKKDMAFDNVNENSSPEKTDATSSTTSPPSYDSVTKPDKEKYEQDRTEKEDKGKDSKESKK

Consider `CC(=O)Nc1cc(C(=O)NC(C)c2ccc(OCC(F)(F)F)nc2)ccn1` (single isomer, unassigned; (-)) [Example 1, (−)-2-acetamido-N-(1-(6-(2,2,2-trifluoroethoxy)pyridin-3-yl)ethyl)isonicotinamide], for which, at human Nav1.7 channels, the IC50 was < 1000 nM and 940 nM. Further, in assay [1], the “activity in CCI-induced static allodynia (50% PWT, von Frey hair test)” value is “potent activity”. The “activity in CFA-induced weight bearing deficit” value in assay [2] is given as “significant activity”.

Values taken from US9302991B2, “Arylamide derivatives as TTX-S blockers” (RaQualia Pharma Inc., priority 2010, dated 2016).
